# How the values were obtained:
# [1] = test system: A9 DA neurons; assay type: in vivo, rat
# Excerpt: Retrograde 6-OHDA lesioning within the striatum is a well-established method of creating progressive degeneration of A9 DA neurons. The loss of TH immunoreactivity reflects actual loss of DA neurons (Sauer, 1994).
# The in vivo neuroprotective effects of G-substrate against 6-OHDA-induced toxicity was examined by injecting 6-OHDA into the corpus striatum of rats which previously had either G-substrate or control genes (empty vector or YFP) delivered to the midbrain using the lentivirus as described above. 6-OHDA induced approximately an 80% loss of TH-positive neurons in the midbrain (FIG. 12Q) and complete loss of TH immunoreactivity in the striatum (data not shown). The severity of the striatal insult in this paradigm precluded our ability to usefully measure protection of striatal nerve terminals. […] Furthermore, most of the surviving TH-positive neurons in lenti G-substrate-transduced rats were strongly G-substrate-positive (FIGS. 12G-12L).
# Rats received two 2.75 μl stereotaxic injections of either lenti-empty vector+lenti-eGFP (n=19), lenti-G substrate+lenti-eGFP (n=19), or lenti-YFP (n=14) and delivered at a rate of 0.2 μl/min using microinfusion pumps (Stoelting Co, Wood Dale, Ill.) with 10 min wait times after each injection. Lenti-eGFP was added to each condition, excluding the YFP condition, to serve as an exogenous marker for surgical targeting (0.5 μl of the total 5.5 μl A volume). SN injection coordinates were as follows: site 1: AP −4.8, ML −2.0, DV −7.2; site 2: AP −5.5, ML −1.8, DV −7.2; and tooth bar set at −3.3. Virus titers (p24) were as follows: G substrate, 60 ng/μl; empty vector, 60 ng/μl; eGFP, 83 ng/μl; and YFP, 60 ng/μl.
# Two weeks following lentiviral injection, animals (lenti-empty vector+lenti-eGFP (n=9), lenti-G substrate+lenti-eGFP (n=9), or lenti-YFP (n=14)) received three 2.5 μl stereotaxic injections of 3.0 μg/μl 6-OHDA (total dose=22.5 μg 6-OHDA) delivered at a rate of 0.5 μl/min and 5 min wait times after each injection. Striatum injection coordinates were as follows: site 1: AP +1.3, ML −2.8, DV −4.5; site 2: AP +0.2, ML, −3.0, DV −5.0; site 3: AP −0.6, ML −4.0, DV −5.5; and tooth bar set at −3.3. The lesion was allowed to progress for 3 weeks after which animals were sacrificed for post mortem analyses.
# Brains were cut frozen in the coronal plane at a thickness of 40 μm on a sliding microtome and six series of sections were stored in cryoprotectant. Two full series of sections were processed for visualization of tyrosine hydroxylase (TH) via the biotin-labeled antibody procedure. Briefly, following several washes in a PBS solution containing 0.01% Triton X-100 (PBS-T), endogenous peroxidase was quenched in a 3% hydrogen peroxide solution and background staining was then inhibited in a 5% normal goat serum solution. […]
# [2] = test system: VMAT2; test: Western blot of VMAT2 expression in M17 cells; assay type: cell-based, human
# Excerpt: BE(2)-M17 cells were used to investigate the interaction between G-substrate and α-synuclein, a known risk factor and possible causative agent in Parkinson's disease. […] Likewise, VMAT2 expression was reduced in naïve M17 cells following the reduction in endogenous G-substrate using siRNA (FIG. 10C).
# M17 cells transiently and stably overexpression α-synuclein were transfected using the G-substrate lentiviral vector described above.
# The PP2A regulation of VMAT 2 was investigated in M17 cells. PP2A levels were reduced using RNAi. […] The effect of PP2A inhibition was not generalized to other dopaminergic markers tested.
# Cells and tissue samples were collected from and suspended in lysis buffer containing: 50 mM Tris-HCl, 0.15 M NaCl, 0.32 M sucrose, 1.0 mM EDTA, and 1% NP-40. In addition, phosphatase inhibitors I and II (1:100) and protease inhibitors (1:100) were added fresh prior to cell lysis (Sigma-Aldrich, P2850, P5276, and P8340 respectively). Following cell lysis, the homogenate was centrifuged, a portion of the supernatant was reserved for protein determination (BCA Assay, Pierce, Rockford, Ill.) and the remaining was stored at −20° C. 20 μg (in vitro cell preps) and 50 μg (tissue dissections) of solubilized protein were mixed 1:1 with sample buffer and boiled for 5 min. The samples and molecular weight standards were separated using the Criterion precast 10% SDS-polyacrylamide gel system (Bio-Rad, Hercules, Calif.). After electrophoresis, the proteins were electrically transferred to PVDF membranes at 100 V for 30 min. After transfer, blots were incubated in Tris-buffered saline with 0.1% Tween 20 (TBS-T) containing 5% BSA. Subsequently, blots were incubated with the following antibodies at 4° C. overnight (1:1000 unless otherwise stated): phospho-Akt (ser473), phospho-GSK3β (ser9), phospho-erk1/2, and phospho-p38 (Cell Signaling Technologies, Danvers, Mass.). HRP-conjugated secondary antibodies were then applied and immunoreactive bands were visualized with chemiluminescence (Amersham Biosciences, Arlington Heights, Ill.) and exposed onto film. Immunoblots were then stripped and re-probed for the expression of the total protein (Cell Signaling) and beta-actin (1:10 000) (Abcam) to serve as a loading control. Optical density analysis (NIH image) was used to determine the relative abundance of protein in each sample. The optical densities of the phospho epitopes were standardized to their respective total proteins and this value was used in the statistical analyses.
substance,measurement,setting,value
G-substrate: human wild type G-substrate (SEQ ID NO.: 1) overexpressed from a lentiviral vector,DA neuronal protection,[1]; 6-OHDA-lesioned rats,~10%
same,transduced DA neurons protected from 6-OHDA-induced toxicity,[1]; worked out from 22.3% transduction and ˜10% protection,approximately 50%
same,VMAT2 expression in α-synuclein overexpressing cells,[2]; M17 cells transiently and stably overexpressing α-synuclein,reversing the α-synuclein-induced loss of VMAT2
same,VMAT2 expression,[2]; naïve M17 cells,significant increase

# — US8545834B2, “G-substrate for the treatment and prevention of parkinson's disease” (The McLean Hospital Corporation, priority 2007, dated 2013)
